From patent US7432095B2, “Formate dehydrogenase tolerant to halogen compounds and process for producing the same” (Kaneka Corporation, priority 2001, dated 2008)
Read-outs that look alike come from different tables or passages of the source.

Key:
[1] = test system: KNK65MA FDH (formate dehydrogenase); assay: Haloketone tolerance: residual FDH activity of cell-free extract after standing with haloketone; type: biochemical, Thiobacillus sp. KNK65MA; conditions: 30° C.
[2] = target: T1, Candida boidinii FDH (Candida boidinii, UniProt O13437); assay: biochemical
T1 sequence (O13437 1-364): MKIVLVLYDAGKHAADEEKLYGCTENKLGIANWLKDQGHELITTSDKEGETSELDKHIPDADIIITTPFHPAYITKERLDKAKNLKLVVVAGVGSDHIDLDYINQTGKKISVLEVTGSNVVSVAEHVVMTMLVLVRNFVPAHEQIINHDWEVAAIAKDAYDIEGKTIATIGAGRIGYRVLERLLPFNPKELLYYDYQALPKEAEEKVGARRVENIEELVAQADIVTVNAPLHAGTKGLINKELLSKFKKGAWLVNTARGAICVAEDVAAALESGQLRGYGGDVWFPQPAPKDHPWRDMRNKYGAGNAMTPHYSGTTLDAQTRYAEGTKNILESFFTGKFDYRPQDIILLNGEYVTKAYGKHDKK

[3] = test system: FDH derived from the KNK607 strain; assay: Haloketone tolerance: residual FDH activity of cell-free extract after standing with haloketone; type: biochemical; conditions: 30° C.
[4] = test system: ethyl 4-chloroacetoacetate reduction system (NAD regeneration); assay: Coenzyme regeneration in the enzymatic reduction system of ethyl 4-chloroacetoacetate; type: biochemical; conditions: 6 g ethyl 4-chloroacetoacetate in 60 ml, butyl acetate/water, pH 6.5, 30° C., 3.5 hours, reductase from HB101 (pNTS1M1)
Protocol: Escherichia coli HB101 (pFT002) expressing the KNK65MA-derived FDH as acquired in Example 7 and Escherichia coli HB101 (pFA002) expressing KNK607-derived FDH (WO 02/46427) were respectively inoculated into 60 ml of the liquid medium shown in Table 5 sterilized in a 500 ml Sakaguchi flask and shake-cultured at 37° C. for 9 hours. The resulting culture medium was inoculated into 100 ml of the liquid medium shown in Table 5 sterilized in a 500 ml Sakaguchi flask in size of 1% and shake-cultured at 37° C. for 46 hours. The resulting culture medium was centrifugally concentrated 5-fold and sonicated to give an FDH enzyme solution. On the other hand, for use as the reductase enzyme for reducing a 4-haloacetoacetate, the recombinant Escherichia coli HB101 (pNTS1M1)(FERM BP-8059) was inoculated into 100 ml of the medium shown in Table 5 sterilized in a 500 ml Sakaguchi flask, shake-cultured at 37° C. for 23 hours, and concentrated 10-fold and the cells were disrupted. […] After completion of the reaction, the reaction mixture was extracted with butyl acetate and the extract was analyzed. […]
The quantitation of ethyl 4-chloro-3-hydroxybutyrate was carried out by gas chromatography. […]

[5] = Formate dehydrogenase activity assay (NADH formation, absorbance at 340 nm) of the purified enzyme; type: biochemical, Thiobacillus sp. KNK65MA; conditions: for Specific activity: 0.1 M phosphate buffer pH 7, 500 mM sodium formate, 5 mM NAD
Protocol: In the present invention, the formate dehydrogenase activity of the polypeptide is assayed by quantitating the increase in absorbance at 340 nm resulting from the production of NADH at 30° C. or 40° C. in a 0.1 M phosphate buffer (pH 7) containing 500 mM sodium formate and 5 mM NAD.
The molecular weight determination is by gel permeation chromatography. The Km value for formate is determined by measuring the activity under the above conditions of activity assay (30° C., NAD 5 mM) while the concentration of sodium formate is varied, and the Km value for NAD is determined under the above conditions of activity assay (30° C., sodium formate 500 mM) while the concentration of NAD is varied. […]
The activity of the formate dehydrogenase obtained was assayed by quantitating the increase in absorbance at 340 nm resulting from formation of NADH in 0.1 M phosphate buffer (pH 7) containing 500 mM sodium formate and 5 mM NAD at 30° C. or 40° C. In this connection, the amount of the enzyme yielding […] of NADH in 1 minute was defined as 1 unit. Protein assay was performed by the method of Lowry using BSA as standard protein. The specific activity of the purified formate dehydrogenase was 7.6 u/mg protein (30° C.) or 13.3 μ/mg protein (40° C.)
The Km values for formate and NAD were determined as follows. Thus, the Km value for formate was determined by measuring the activity with the concentration of sodium formate varied under the above specific activity assay conditions (30° C., NAD 5 mM) and the Km value for NAD was determined by measuring the activity with the concentration of NAD varied under the above specific activity assay conditions (30° C., sodium formate 500 mM). In FIG. 3 and FIG. 4, V represents the reaction velocity of the enzyme, S represents the concentration of the substrate, and the intercept of the abscissa represents −1/Km. […]

[6] = […], haloketone 20 mM added 1:1, 5 hours, […]
[7] = […], haloketone 20 mM added 1:1, 30° C., 5 hours, […], read-out: Residual FDH activity (%)
[8] = KNK65MA FDH extract, haloketone 20 mM added 1:1, 5 hours, untreated extract = 100%
[9] = Candida boidinii FDH extract, haloketone 20 mM added 1:1, 30° C., 5 hours, untreated extract = 100%, read-out: Residual FDH activity (%)
[10] = KNK607 FDH extract, haloketone 20 mM added 1:1, 5 hours, untreated extract = 100%
[11] = […], haloketone 20 mM added 1:1, 28.5 hours, […]

## CC(C)(C)OC(=O)N[C@@H](Cc1ccccc1)C(=O)CCl [1,1-dimethylethyl [(1S)-3-chloro-2-oxo-1-(phenylmethyl)propyl]carbamate]
[1]; KNK65MA FDH extract, haloketone 2 mM added 1:1, 5 hours, untreated extract = 100%
  Residual FDH activity (%): 100.0%
[2]; Candida boidinii FDH extract, haloketone 2 mM added 1:1, 30° C., 5 hours, untreated extract = 100%, read-out: Residual FDH activity (%)
  remaining activity at 2000 µM: 31.3%
[3]; KNK607 FDH extract, haloketone 2 mM added 1:1, 5 hours, untreated extract = 100%
  Residual FDH activity (%): 81.6%

## COC(=O)CC(=O)CCl [Methyl4-chloroacetoacetate, methyl 4-chloroacetoacetate]
[1]; [6]
  Residual FDH activity (%): 100.0%
[2]; [7]
  remaining activity at 20000 µM: 14.9%
[3]; [6]
  Residual FDH activity (%): 13.1%

## CCOC(=O)CC(=O)CI [Ethyl4-iodoacetoacetate, ethyl 4-iodoacetoacetate]
[1]; [8]
  Residual FDH activity (%): 12.1%
[2]; [9]
  remaining activity at 20000 µM: 0%
[3]; [10]
  Residual FDH activity (%): 0.0%

## O=C(CO)CCl [1-Chloro-3-hydroxy-2-propanone, 1-chloro-3-hydroxy-2-propanone]
[1]; [8]
  Residual FDH activity (%): 80.1%
[2]; [9]
  remaining activity at 20000 µM: 14.7%
[3]; [10]
  Residual FDH activity (%): 11.7%

## chloroacetone
[1]; 5 hours
  Residual FDH activity (%): 100.0%
[2]; 30° C., 5 hours
  Residual FDH activity (%): 38.2%
[3]; 5 hours
  Residual FDH activity (%): 46.2%

## O=C(CCl)c1ccccc1 [2-Chloroacetophenone, 2-chloroacetophenone]
[1]; [11]
  Residual FDH activity (%): 100.7%
[2]; 28.5 h, read-out: Residual FDH activity (%)
  remaining activity at 20000 µM: 29.4%
[3]; [11]
  Residual FDH activity (%): 100.0%

## O=C(CCl)COC(=O)c1ccccc1 [1-(Benzoyloxy)-3-chloro-2-propanone, 1-(benzoyloxy)-3-chloro-2-propanone]
[1]; KNK65MA FDH extract, haloketone 10 mM added 1:1, 5 hours, untreated extract = 100%
  Residual FDH activity (%): 100.7%
[2]; Candida boidinii FDH extract, haloketone 10 mM added 1:1, 30° C., 5 hours, untreated extract = 100%, read-out: Residual FDH activity (%)
  remaining activity at 10000 µM: 4.5%
[3]; KNK607 FDH extract, haloketone 10 mM added 1:1, 5 hours, untreated extract = 100%
  Residual FDH activity (%): 1.6%

## CCOC(=O)CC(=O)CCl [Ethyl4-chloroacetoacetate, ethyl 4-chloroacetoacetate]
[1]; [6]
  Residual FDH activity (%): 100.7%
[2]; [7]
  remaining activity at 20000 µM: 14.3%
[3]; [6]
  Residual FDH activity (%): 20.1%

## CCOC(=O)CC(=O)CBr [Ethyl4-bromoacetoacetate, ethyl 4-bromoacetoacetate]
[1]; [8]
  Residual FDH activity (%): 24.1%
[2]; [9]
  remaining activity at 20000 µM: 0%
[3]; [10]
  Residual FDH activity (%): 0.0%

## O=C(CCl)c1cccc(Cl)c1 [2,3′-Dichloroacetophenone, 2,3′-dichloroacetophenone]
[1]; [6]
  Residual FDH activity (%): 97.9%
[2]; [7]
  remaining activity at 20000 µM: 7.4%
[3]; [6]
  Residual FDH activity (%): 27.0%

## CCOC(=O)C(Cl)C(C)=O (centres unmarked) [Ethyl2-chloroacetoacetate, ethyl 2-chloroacetoacetate]
[1]; [6]
  Residual FDH activity (%): 100.0%
[2]; [7]
  remaining activity at 20000 µM: 5.4%
[3]; [6]
  Residual FDH activity (%): 2.5%

## O=C(CCl)c1cccnc1 [2-Chloro-1-(3-pyridinyl)ethanone, 2-chloro-1-(3-pyridinyl)ethanone]
[1]; [6]
  Residual FDH activity (%): 90.1%
[2]; [7]
  remaining activity at 20000 µM: 1.5%
[3]; [6]
  Residual FDH activity (%): 6.1%

B1: FDH derived from KNK65MA: Haloketone-tolerant NAD-dependent formate dehydrogenase from Thiobacillus sp. KNK65MA, amino acid sequence SEQ ID NO:1 (protein, listed as Thiobacillus sp.)
chain: MAKILCVLYDDPVDGYPKTYARDDLPKIDHYPGGQTLPTPKAIDFTPGQLLGSVSGELGLRKYLEANGHTFVVTSDKDGPDSVFEKELVDADVVISQPFWPAYLTPERIAKAKNLKLALTAGIGSDHVDLQSAIDRGITVAEVTYCNSISVAEHVVMMILGLVRNYIPSHDWARKGGWNIADCVEHSYDLEGMTVGSVAAGRIGLAVLRRLAPFDVKLHYTDRHRLPEAVEKELGLVWHDTREDMYPHCDVVTLNVPLHPETEHMINDETLKLFKRGAYIVNTARGKLADRDAIVRAIESGQLAGYAGDVWFPQPAPKDHPWRTMKWEGMTPHISGTSLSAQARYAAGTREILECFFEGRPIRDEYLIVQGGALAGTGAHSYSKGNATGGSEEAAKFKKAG
[4]
  Conversion rate to ethyl 4-chloro-3-hydroxybutyrate: 100%
[5]; 30° C., NAD 5 mM, sodium formate varied, read-out: Km value for formate
  Km: 1600 µM
[5]; 30° C., sodium formate 500 mM, NAD varied, read-out: Km value for NAD
  Km: 48 µM
[5]; 30° C.
  Specific activity: 7.6 u/mg protein
[5]; 40° C.
  Specific activity: 13.3 μ/mg protein
